Measured values published in patent US10557853B2 (priority 2012, dated 2020).
“And” between values parts separate entries of the source, which are not always exact repeats. Equal entries are not always repeated. “Also recorded” adds a separate entry of the source.

What was measured:
GST-M1-1 [1] = target: T1, GST-M1-1 (Homo sapiens, UniProt P09488); assay: Displacement (inhibitor screening) assay with sensor 14-GST-M1-1 complex; assay type: binding; settings: 50 μM drug, sensor 14 90 nM, GST M1-1 90 nM
T1 construct: purchased Oxford Biomedical Research (a second source is given: Israel Structural Proteomics Center, recombinant)
T1 sequence (P09488 2-218 limits assumed): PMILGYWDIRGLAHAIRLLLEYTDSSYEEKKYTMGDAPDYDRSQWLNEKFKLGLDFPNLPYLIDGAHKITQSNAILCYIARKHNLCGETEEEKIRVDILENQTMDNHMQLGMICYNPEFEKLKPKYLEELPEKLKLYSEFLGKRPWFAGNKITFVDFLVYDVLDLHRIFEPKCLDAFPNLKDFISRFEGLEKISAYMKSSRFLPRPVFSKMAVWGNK
Method: A possible advantage of such systems, however, is that they abrogate the need for using labelled substrates and following the reaction kinetics. Such sensors could, therefore, complement other label-free enzyme assays that rely on indicator displacement mechanisms.
The sensor 14-GST-M1-1 complex was treated with a random library of known drugs.

[2] = tested on: MDA-MB-231 cancer cells, overexpressing GST-P1-1; assay: Live cell fluorescence imaging, MDA-MB-231; assay type: cell-based; settings: 2 μM, 15 minutes at 37° C.
Method: GST-P1-1 is a cytosolic protein, whereas DNA is located in the nucleouse.
MDA-MB-231 cells were maintained in RPMI supplemented with 10% FBS, L-glutamine, and antibiotics. […] Cell images were analyzed using imageJ.

dsDNA = assay: Fluorescence response to double-stranded DNA; assay type: binding; settings: for fluorescence response to addition of dsDNA (FIG. 21e): 100 nM sensor or TO, 400 nM dsDNA, phosphate buffer 5 mM pH 6.5
Method: Different 10 derivatives (Table 3) were incubated with increasing concentrations of double-stranded DNA and compared their fluorescence emission prior to and after their incubation in PBS buffer, pH=6.5 (FIG. 9).

GST-P1-1 [3] = target: T2, GST-P1-1 (Homo sapiens, UniProt P09211); assay: GST kinetic measurements and inhibitory constants (CDNB/GSH), GST-P1-1; assay type: biochemical; settings: Morrison fit; GSH 3 mM, CDNB 1.5 mM; read-out: approximate inhibition constant Ki, GST-P1-1
T2 construct: purchased Oxford Biomedical Research (a second source is given: Israel Structural Proteomics Center, recombinant)
Method: (§1) (FIGS. 16- and 19). The concentrations of different GSTs, GSH, and CDNB were 20 nM, 350 μM, and 700 μM, respectively. The GST activity was measured spectrophotometrically using chloro-2,4-dinitrobenzene (CDNB) and GSH as substrates, in phosphate buffer (10 mM, pH 6.5). In a typical experiment, GST and sensors 14 or 140 were incubated for 10 min at 25° C. and then GSH and CDNB were subsequently added. The formation of S-(2,4-dinitrophenyl)-glutathione was monitored using the microplate reader at λ=340 nm. […] The concentrations of GSH and CDNB were 3 mM and 1.5 mM, respectively. The Km values were determined using 20 nM of each GST isoform, 3 mM GSH, and variable CDNB concentrations (50 μM-2 mM). Data were fit to the Michaelis-Menten equation using Sigmaplot version 12.0 statistical software (Systat) to obtain the Km values.
(§2) The data were analyzed using Graphpad Prism 6.0 and fitted to the Morrison equation for tight binding substrates (FIG. 18 and FIG. 19(b,c)).
(§3) [formula] where Y is the enzyme activity, X is different concentrations of inhibitor (compound 14 or 140), E is the enzyme concentration, S is the concentration of substrate, Km is the Michaelis-Menten constant determined in an experiment without inhibitor, and V0 is the initial velocity.

GST-P1-1 [4] = target: T2, GST-P1-1; assay: GST sensing: fluorescence response to GST-P1-1; assay type: binding; settings: 100 nM sensor
Method: (§4) The most efficient TOPI sensors were identified (FIG. 12) by measuring the fluorescence of the six sensors (100 nM) in the absence and presence of their targets (90 nM) (FIG. 13).
(§5) Based on the obtained binding constants (FIG. 15), a concentration of 100 nM sensor was chosen for GST sensing. This concentration should ensure strong binding and a high S/N ratio.

GST-A2-2 [5] = target: T3, GST-A2-2 (Homo sapiens, UniProt P09210); assay: GST kinetic measurements and inhibitory constants (CDNB/GSH), GST-A2-2; assay type: biochemical; settings: Morrison fit; GSH 3 mM, CDNB 1.5 mM; read-out: approximate inhibition constant Ki, GST-A2-2
T3 construct: purchased Oxford Biomedical Research (a second source is given: Israel Structural Proteomics Center, recombinant)
T3 sequence (P09210 2-222 limits assumed): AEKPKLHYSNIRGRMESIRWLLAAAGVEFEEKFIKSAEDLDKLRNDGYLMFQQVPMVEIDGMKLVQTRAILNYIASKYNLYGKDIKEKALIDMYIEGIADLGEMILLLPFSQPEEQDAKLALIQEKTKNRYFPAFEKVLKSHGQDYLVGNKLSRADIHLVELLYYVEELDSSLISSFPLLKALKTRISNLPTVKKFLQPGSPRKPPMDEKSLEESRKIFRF
Method: as §1, §2, §3

GST-P1-1 [6] = target: T2, GST-P1-1; assay: Fluorescence binding study, dissociation constant with GST-P1-1; settings: fluorescence titration, phosphate buffer 5 mM pH 6.5; read-out: approximate dissociation constant Kd, GST-P1-1
Method: The approximate dissociation constants were determined for GST-M1-1 and GST-P1-1. For these experiments, the concentration of the sensor was chosen according to the enzymatic assays (Ki values, FIG. 18, 19). It was chosen to be lower than the Ki (expected Kd), but such that would also generate a detectable and reproducible emission signal in the plate reader. […] The data were analyzed using Graphpad Prism 6.0 and fitted to the equation: Y=Bmax·X/(kd+X) where Bmax is the maximum binding and X is the concentration of protein.

GST-A2-2 [7] = target: T3, GST-A2-2; assay: GST sensing: fluorescence response to GST-A2-2; assay type: binding; settings: 100 nM sensor, 90 nM isozyme
Method: as §4, §5

GST-A1-1 = target: T4, GST-A1-1 (Homo sapiens, UniProt P08263); assay: GST sensing: fluorescence response to GST-A1-1; assay type: binding; settings: 100 nM sensor, 90 nM isozyme
T4 construct: purchased Oxford Biomedical Research (a second source is given: Israel Structural Proteomics Center, recombinant)
T4 sequence (P08263 2-222 limits assumed): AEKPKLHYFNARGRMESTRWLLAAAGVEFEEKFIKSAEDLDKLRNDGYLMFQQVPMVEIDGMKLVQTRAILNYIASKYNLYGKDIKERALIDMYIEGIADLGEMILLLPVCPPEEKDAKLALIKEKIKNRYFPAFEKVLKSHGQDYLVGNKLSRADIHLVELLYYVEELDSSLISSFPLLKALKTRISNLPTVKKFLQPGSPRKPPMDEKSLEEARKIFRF
Method: as §4, §5

GST-M1-1 [8] = target: T1, GST-M1-1; assay: GST sensing: fluorescence response to GST-M1-1; assay type: binding; settings: 100 nM sensor
Method: as §4, §5
Two different mixtures of GST isoforms were prepared: one that contained all the GST isoforms (20 nM of each GST, in total 160 nM) (A1-1k2-2, P1-1, M1-1, T1-1, O1-1, Z1-1, and K1-1) and the second mixture contained all the GST isoforms except GST-M1-1.

avidin (Av) = avidin (Av) (Gallus gallus, UniProt P02701); assay: Av sensing: fluorescence response of TOPI sensors; assay type: binding; settings: 100 nM sensor, 90 nM Av; for enhancement in fluorescence emission upon addition of Av: phosphate buffer 15 mM pH 7.3
Method: as §4
(§6) Fluorescence values were recorded immediately after addition of the proteins (FIGS. 12d and 13b).

streptavidin (SAv) = streptavidin (SAv) (Streptomyces avidinii, UniProt P22629); assay: SAv sensing: fluorescence response of TOPI sensors; assay type: binding; settings: 100 nM sensor, 90 nM SAv
Method: as §4, §6

AChE [9] = target: T5, AChE (Tetronarce californica, UniProt P04058); assay: AChE sensing: fluorescence response of TOPI sensors; assay type: binding; settings: 100 nM sensor, 90 nM AChE
T5 construct: gift from Prof; Israel Silman Lab (Weizmann Institute of Science)
Method: Fluorescence values were recorded immediately after addition of the proteins (FIGS. 12a and 13a).

AChE [10] = target: T5, AChE; assay: AChE kinetic measurements (Ellman method); assay type: biochemical; settings: for inhibition of AChE activity: 8 pM AChE, sensor 36 50 nM, sensor 37 2 μM
Method: The AChE activity was measured spectrophotometrically using 5,5′-dithiobis(2-nitrobenzoic acid) (DTNB) and acetylthiocholine iodide as substrates, in phosphate buffer (50 mM, pH 8.0). […] The final concentrations of AChE, DTNB, and acetylthiocholine iodide were 8 pM, 0.4 mM, and 0.4 mM, respectively.

healthy MCF-10A cells = assay: Live cell fluorescence imaging, MCF-10A; assay type: cell-based; settings: 2 μM

avidin (Av), sequence (P02701 25-152): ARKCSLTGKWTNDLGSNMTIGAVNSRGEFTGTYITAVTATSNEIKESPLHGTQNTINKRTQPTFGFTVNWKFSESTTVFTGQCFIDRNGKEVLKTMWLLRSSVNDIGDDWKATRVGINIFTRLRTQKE
T5 sequence (P04058 22-564): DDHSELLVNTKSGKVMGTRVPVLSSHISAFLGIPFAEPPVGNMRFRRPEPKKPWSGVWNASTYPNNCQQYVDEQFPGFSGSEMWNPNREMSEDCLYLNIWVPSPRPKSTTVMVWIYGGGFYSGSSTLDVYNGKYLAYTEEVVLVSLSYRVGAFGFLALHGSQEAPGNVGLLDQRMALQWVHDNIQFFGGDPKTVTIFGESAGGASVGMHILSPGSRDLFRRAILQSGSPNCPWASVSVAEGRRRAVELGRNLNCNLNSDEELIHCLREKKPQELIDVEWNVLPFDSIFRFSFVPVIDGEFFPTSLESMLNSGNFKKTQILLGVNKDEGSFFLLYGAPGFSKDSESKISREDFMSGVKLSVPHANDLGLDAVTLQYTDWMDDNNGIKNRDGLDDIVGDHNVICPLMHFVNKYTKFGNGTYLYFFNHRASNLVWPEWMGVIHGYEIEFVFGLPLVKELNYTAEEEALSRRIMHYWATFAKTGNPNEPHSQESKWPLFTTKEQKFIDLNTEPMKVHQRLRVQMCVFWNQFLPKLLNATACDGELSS
T2 sequence (P09211 2-210 limits assumed): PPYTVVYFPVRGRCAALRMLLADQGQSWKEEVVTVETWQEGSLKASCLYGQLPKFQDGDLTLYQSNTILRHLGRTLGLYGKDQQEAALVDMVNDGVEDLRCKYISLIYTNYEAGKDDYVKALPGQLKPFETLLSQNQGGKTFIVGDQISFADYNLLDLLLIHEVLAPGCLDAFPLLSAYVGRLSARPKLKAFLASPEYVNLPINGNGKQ
streptavidin (SAv), sequence (P22629 25-183): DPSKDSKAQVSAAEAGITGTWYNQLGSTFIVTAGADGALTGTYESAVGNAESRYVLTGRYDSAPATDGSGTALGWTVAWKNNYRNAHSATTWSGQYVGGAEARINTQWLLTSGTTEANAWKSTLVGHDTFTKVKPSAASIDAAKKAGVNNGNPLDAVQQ

## C=C(CC)C(=O)c1ccc(OCC(=O)O)c(Cl)c1Cl [EA, Ethacrynic acid]
GST-M1-1 [1]
  displacement of sensor 14 from GST-M1-1 (reduction in emission): selective identification

## CN1C(=Cc2cc[n+](C)c3ccccc23)Sc2ccccc21 [TO, Thiazole Orange, reference compound]
[2]
  localization of fluorescence in live MDA-MB-231 cells: strong green emission mainly from the nucleus
dsDNA
  fluorescence response to addition of dsDNA (FIG. 21e): strong fluorescence signal

## CCCCCCSC[C@H](NC(=O)CC[C@H](N)C(=O)O)C(=O)NCC(=O)O [s-hexyl GSH]
GST-M1-1 [1]
  displacement of sensor 14 from GST-M1-1 (reduction in emission): selective identification

## C=C(CC)C(=O)c1ccc(OCC(=O)NCCCn2cc(CNC(=O)OCCCN3C=C/C(=C\c4sc5ccccc5[n+]4CCCOC(=O)NCc4cn(CCCNC(=O)COc5ccc(C(=O)C(=C)CC)c(Cl)c5Cl)nn4)c4ccccc43)nn2)c(Cl)c1Cl [sensor 14]
GST-P1-1 [3]
  Ki: 49 nM
GST-P1-1 [4]; 90 nM GST P1-1, phosphate buffer 5 mM pH 6.5
  time course of emission in the presence of GST-P1-1: slowly increased over a period of 2 hours
dsDNA
  fluorescence response to addition of dsDNA (FIG. 21e): negligible fluorescence responses; also recorded: did not exhibit any change in its fluorescence at 540 nm
dsDNA; 500 nM TO derivative, 100-900 nM dsDNA, PBS pH 6.5, emission 530 nm
  change in fluorescence upon addition of dsDNA (Example 3): did not exhibit any change in its fluorescence at 530 nm
GST-A2-2 [5]
  Ki: 20 nM
GST-P1-1 [6]
  Kd: 38 nM
GST-A2-2 [7]
  fluorescence detection of GST-A2-2: could not be detected
GST-A1-1
  fluorescence detection of GST-A1-1: could not be detected
GST-M1-1 [8]; 90 nM GST-M1-1, phosphate buffer 5 mM pH 6.5, recorded immediately
  fluorescence enhancement in the presence of GST-M1-1: 55 fold
GST-M1-1 [8]; GST-M1-1 20 nM plus seven additional GSTs 20 nM each
  detection of GST-M1-1 in a mixture of GST isozymes: selective detection of GST-M1-1 in a mixture of isoforms

## O=C(CCCCC1SCC2NC(=O)NC21)NCCOCCOCCNC(=O)CCN1C=C/C(=C\c2sc3ccccc3[n+]2CCC(=O)NCCOCCOCCNC(=O)CCCCC2SCC3NC(=O)NC32)c2ccccc21.[I-] (centres unmarked) [sensor 34]
Avidin (Av)
  fluorescence response to Av: strongly
  enhancement in fluorescence emission upon addition of Av: 16 fold
Streptavidin (SAv)
  fluorescence response to SAv: weakly; also recorded: hardly detected
dsDNA
  fluorescence response to addition of dsDNA (FIG. 21e): negligible fluorescence responses

## O=C(CCCCC1SCC2NC(=O)NC21)NCCNC(=O)CCN1C=C/C(=C\c2sc3ccccc3[n+]2CCC(=O)NCCNC(=O)CCCCC2SCC3NC(=O)NC32)c2ccccc21.[I-] (centres unmarked) [sensor 35]
Avidin (Av)
  fluorescence response to Av: strongly
  enhancement in fluorescence emission upon addition of Av: 7 fold
Streptavidin (SAv)
  fluorescence response to SAv: weakly; also recorded: hardly detected

## O=C(CCN1C=C/C(=C\c2sc3ccccc3[n+]2CCC(=O)NCCCCCCNc2c3c(nc4ccccc24)CCCC3)c2ccccc21)NCCCCCCNc1c2c(nc3ccccc13)CCCC2.[I-] [sensor 36]
AChE [9]
  detection of AChE: could detect AChE
AChE [9]; phosphate buffer 20 mM pH 8
  enhancement in fluorescence emission upon addition of AChE: 22 fold
AChE [10]
  inhibition of AChE activity: strong bivalent inhibitor; also recorded: full inhibition at low nanomolar concentration
AChE [10]; competitive inhibition fit, acetylthiocholine iodide substrate, read-out: approximate inhibition constant Ki, AChE
  Ki: 0.32 nM and 0.31 nM

## O=C(CCN1C=C/C(=C\c2sc3ccccc3[n+]2CCC(=O)NCCNc2c3c(nc4ccccc24)CCCC3)c2ccccc21)NCCNc1c2c(nc3ccccc13)CCCC2.[I-] [sensor 37]
AChE [9]
  detection of AChE: could detect AChE
AChE [10]
  inhibition of AChE activity: inhibited the AChE, activity only at 2 μM

## C=C(CC)C(=O)c1ccc(OCC(=O)NCCNC(=O)CCN2C=C/C(=C\c3sc4ccccc4[n+]3CCC(=O)NCCNC(=O)COc3ccc(C(=O)C(=C)CC)c(Cl)c3Cl)c3ccccc32)c(Cl)c1Cl [sensor 140, (E)-3-(3-((2-(2-(2,3-dichloro-4-(2-methylenebutanoyl)phenoxy)acetamido)ethyl)amino)-3-oxopropyl)-2-((1-(3-((2-(2-(2,3-dichloro-4-(2-methylenebutanoyl)phenoxy)acetamido)ethyl)amino)-3-oxopropyl)quinolin-4(1H)-ylidene)methyl)benzoidithiazol-3-ium iodide]
[2]
  localization of fluorescence in live MDA-MB-231 cells: distributed within the cell
GST-P1-1 [4]; 90 nM GST-P1-1, after 30 min incubation
  turn-on fluorescence signal in the presence of GST-P1-1: 33 fold
dsDNA
  fluorescence response to addition of dsDNA (FIG. 21e): negligible fluorescence responses
GST-P1-1 [6]
  Kd: 29 nM
Healthy MCF-10A cells
  emission signal in MCF-10A cells: much weaker emission signal
